Results on three molecules are retold here after publication PMC10527014 (Antiviral research, 2023).

One may read the IC90 as the concentration at which the effect reaches the 90% level. As usually defined, the IC50 is the point on the concentration scale where inhibition reaches its midpoint.

Where two headings read alike, the source gives them in different places.

In data set [1] the test system is Coxsackievirus B3-Woodruff (CVB3). Kind of data set: microbe, parasite or virus in culture. The conditions noted are these: B3|CVB3, HeLa.
For another data set, the system named is mouse-adapted CVB5. Briefly: Mouse model of CVB5-induced pancreatitis. Type of data set: in vivo, BALB/c mice. The settings on record: CVB5-infected mice, Fig. S20.
For data set [2], the system named is enterovirus / picornavirus infections. The settings on record: cited from earlier work.
The subject of data set [3] is EV-D68 MP30 PP (mouse-adapted US/MO/14-18949). The conditions noted are these: day 3 p.i., during animal model development; ref Hurst et al., 2019; cited from earlier work.
Data set [4] concerns CYP3A4. The settings on record: 1 μM, rifampicin as positive control, previously tested.
The subject of a further data set is Coxsackievirus B5 (CVB5). Briefly: CVB5 CPE rescue. The settings on record: Enterovirus B, B5|CVB5, Vero, read-out: EC50 against CVB5. Type of data set: cell-based.
Data set [5] has as its target CYP3A4 (Homo sapiens, UniProt P08684). The conditions noted are these: human liver microsomes, at higher concentrations (Fig. S21).
Data set [6] has as its system 215 clinical isolates of EV serotypes. The conditions noted are these: ~90% of isolates; ref Pevear et al., 1999; cited from earlier work.
In data set [7] the test system is EV-D68. The settings on record: read-out: EC50 against EV-D68; ref Liu et al., 2015b; cited from earlier work.
In data set [8] the target is T1, pregnane X-receptor (PXR) (Homo sapiens, UniProt O75469).
T1 sequence (O75469 1-434): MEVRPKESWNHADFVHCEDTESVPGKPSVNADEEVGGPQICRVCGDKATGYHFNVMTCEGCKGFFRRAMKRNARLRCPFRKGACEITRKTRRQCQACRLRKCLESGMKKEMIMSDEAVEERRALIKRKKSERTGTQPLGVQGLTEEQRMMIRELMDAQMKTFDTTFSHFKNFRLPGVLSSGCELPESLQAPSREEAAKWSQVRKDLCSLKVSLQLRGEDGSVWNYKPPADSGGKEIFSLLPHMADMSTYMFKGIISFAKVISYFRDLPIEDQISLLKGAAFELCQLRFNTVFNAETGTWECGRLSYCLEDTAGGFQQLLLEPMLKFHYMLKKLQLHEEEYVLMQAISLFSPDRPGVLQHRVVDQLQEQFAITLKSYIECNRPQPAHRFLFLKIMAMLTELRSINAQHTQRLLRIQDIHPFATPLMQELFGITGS
Briefly: PXR agonist activity.

The next data set has as its system EV-71. The settings on record: read-out: IC50 against EV-71 in vitro; ref Zhang et al., 2012; cited from earlier work.
Data set [9] relates to Coxsackievirus B3-Woodruff (CVB3). The class given is cell-based. The conditions noted are these: Coxsackievirus, B3|CVB3, HeLa, read-out: Inhibitory concentration EC50 against CVB3-Woodruff.
For data set [10], the system named is EV-D68 MP30 PP (mouse-adapted US/MO/14-18949). Kind of data set: EV-D68 respiratory infection model in four-week-old AG129 mice. The class given is in vivo. The settings on record: days 1 and 3 p.i., P≤0.05 vs placebo; guanidine 100 mg/kg/day.
For data set [11], the system named is EV-D68 MP30 PP (mouse-adapted). Briefly: EV-D68 neurological infection. Type of data set: in vivo, AG129 mice.
In data set [12] the test system is EV-D68. The settings on record: mouse model of EV-D68-associated AFM; ref Hixon et al., 2017; cited from earlier work.

CYP3A4 (Homo sapiens, UniProt P08684), sequence (P08684 whole entry): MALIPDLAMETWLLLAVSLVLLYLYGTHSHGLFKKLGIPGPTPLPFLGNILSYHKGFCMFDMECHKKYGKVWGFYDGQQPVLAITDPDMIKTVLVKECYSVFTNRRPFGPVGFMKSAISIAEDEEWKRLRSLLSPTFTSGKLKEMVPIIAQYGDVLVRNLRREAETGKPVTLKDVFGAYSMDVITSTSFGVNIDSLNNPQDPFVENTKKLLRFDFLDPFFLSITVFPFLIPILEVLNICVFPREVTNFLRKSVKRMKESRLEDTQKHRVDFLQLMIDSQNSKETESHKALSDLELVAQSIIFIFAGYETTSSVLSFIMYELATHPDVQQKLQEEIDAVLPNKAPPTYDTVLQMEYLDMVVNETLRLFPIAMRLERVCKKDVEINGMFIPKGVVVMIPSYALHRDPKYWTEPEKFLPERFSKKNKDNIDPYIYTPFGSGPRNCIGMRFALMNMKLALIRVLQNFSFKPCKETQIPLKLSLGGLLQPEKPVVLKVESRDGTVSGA

For the molecule `Cc1cc(CCCOc2c(C)cc(-c3noc(C(F)(F)F)n3)cc2C)on1` [Pleconaril], the EC50 in data set [1] (read-out: Inhibitory concentration EC50 against CVB3-Woodruff, HeLa cells, adding drug to virus and then infecting at MOI 1 PFU / cell, ± SEM) is 0.045 µM; in data set [1] (read-out: Inhibitory concentration EC50 against CVB3-Woodruff, HeLa cells, adding drug to virus and then infecting at MOI 3 PFU / cell, ± SEM), 0.333 ± 0.21 µM; in the data set on Coxsackievirus B5 (CVB5), 0.00066 µM; with EV-D68 [7], 0.43 µM; in data set [9], 0.15 ± 0.01 µM. Besides, in the data set on mouse-adapted CVB5, the “Histology of pancreatic tissue” value is on record as “no signs of tissue damage”. Further, in data set [2] (400 mg three times a day over five days, ref Hayden et al., 2003), the “Effect on the treatment of the common cold” value is listed as “no statistically significant effect”. Besides, the “Patients with clinical improvement” value in [2] (chronic meningoencephalitis, ref Aradottir et al., 2001, Rotbart et al.) is 78%. For the same molecule, the “Neonates in whom treatment proved effective” value in [2] (neonates with severe enteroviral hepatitis, ref Aradottir et al., 2001) was 2 of 3. The Lung virus titers entry in data set [3] was “did not demonstrate any antiviral activity”. Besides, the “CYP3A induction, of control” value with CYP3A4 [4] was 13 % of control. In addition, the CYP3A induction with CYP3A4 [4] (single donor in duplicate) was 1.7 x. For the same molecule, at CYP3A4 [5], the “Effect on CYP3A4 (in words)” value is recorded as “activation (or autoactivation) of CYP3A4”. For the same molecule, the IC90 in data set [6] was at most 0.18 µM. For the same molecule, the “PXR agonism (in words)” value in data set [8] is listed as “neither 11526092 nor pleconaril is an agonist”. Also, the IC50 in the data set on EV-71 was 0.34 to 1.42 µM.
As for `Cl.N=C(N)N` [guanidine, Guanidine HCl, reference compound], the Lung virus titers result in data set [10] is reported as “showed a reduction”. The Neurological scores result in data set [11] (post-challenge study) is recorded as “reduced the neurological score on day 3 post-infection”. Further, the entries for the “Mice protected from challenge infection” value in data set [11] (post-challenge study (treatment 4 hours post-infection)) and in data set [11] (pre-challenge study (treatment 2 hours pre-infection)) were above 80% and 100%, respectively. In data set [11] (pretreatment, P≤0.0001, Fig. S19), the “Protection from weight loss” value is recorded as “significant protection”.
Regarding `CNCCC(Oc1ccc(C(F)(F)F)cc1)c1ccccc1` (stereo not shown) [fluoxetine], in the data set on EV-D68 [12], the Viral load result is “did not reduce the viral load”.
